Columns and labels:
[1] = molecular target: T1, human vitamin D-binding protein (hDBP) (Homo sapiens, UniProt P02774); test: Relative Competitive Index assay, vitamin D-binding protein; conditions: RCI of 1α,25(OH)2 D3 set to 100; 4° C., pH 7.4
T1 sequence (P02774 17-474): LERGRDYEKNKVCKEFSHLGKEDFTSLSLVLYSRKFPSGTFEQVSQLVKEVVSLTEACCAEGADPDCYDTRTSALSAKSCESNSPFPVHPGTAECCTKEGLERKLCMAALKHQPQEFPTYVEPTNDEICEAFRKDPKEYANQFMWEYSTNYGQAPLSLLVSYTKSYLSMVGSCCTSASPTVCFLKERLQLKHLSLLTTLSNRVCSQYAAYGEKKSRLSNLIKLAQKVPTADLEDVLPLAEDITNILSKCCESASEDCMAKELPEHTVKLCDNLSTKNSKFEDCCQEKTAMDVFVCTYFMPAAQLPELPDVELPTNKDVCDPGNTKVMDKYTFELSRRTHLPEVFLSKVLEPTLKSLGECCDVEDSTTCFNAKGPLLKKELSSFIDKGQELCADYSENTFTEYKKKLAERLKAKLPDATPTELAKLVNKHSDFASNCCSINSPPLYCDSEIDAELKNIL
Description: The compared analogs are 14α,15α-methano-1α,25(OH)2 D3 (LO), 22(m(dimethylhydroxymethyl)phenyl)-23,24,25,26,27-pentanor-1α- OH-D3 (EV) and (22R)-1,25(OH)2 -22,23,diene-D3 (HR), all conformationally flexible genomic agonists. By definition the RCI for 1α,25(OH)2 D3 is set to 100%. The data seen in FIG. 7 represent the mean of three determinations.
Vitamin D-Binding Protein Assay Relative Competitive Index
This example describes a Relative Competitive Index Assay used for determination of analogs binding affinity to vitamin D-binding protein.
Phase separation was then obtained by the addition of 0.5 ml of cold dextran-coated charcoal.
The data was plotted as [competitor]/[[^3 H]25(OH)D3 ] vs. 1/[fraction bound]. The RCI was calculated as [slope of competitor]/[slopefor 25(OH)D3 ]×100. Results are seen in FIG. 7. Although each analog was assayed in competition with [^3 H]25(OH)D3, the data are expressed as relative to the binding of 1α,25(OH)2 D3, with its RCI set to 100.

[2] = test system: vitamin D-deficient chick; test: Bone Ca2+ mobilizing activity (BCM) in vitamin D-deficient chick; format: in vivo; conditions: i.m.; for Classic Vit D Responses BCM: relative to 100 pmol 1α,25(OH)2 D3 = 100%, 12 h before assay
Method: The bone calcium mobilizing (BCM) assay is also conducted in the vitamin D-deficient chick. The BCM assay determines the relative ability of the tested analog to mobilize bone calcium. The natural hormone 1α,25(OH)2 D3 is very potent in the BCM assay. For example, when 1α,25(OH)2 D3 in inappropriate amounts are used as a drug in human patients, the patient may become hypercalcemic and eventually hypercalciuria with nephrolithiasis and renal failure may develop. The BCM assay was used to determine the relative activity of the analogs of the invention to stimulate bone Ca^2+ mobilization.
(§1) Results of the testing of the analogs of the invention in vivo by the ICA and IBM assays are shown in FIG. 9 which illustrates the capability of analogs LO, EV and HR to stimulate intestinal Ca^2+ absorption (ICA) and bone Ca^2+ mobilizing activity (BCM). In this study, the analogs of 1α,25(OH) were given i.m. to vitamin D-deficient chicks 12 hours before the assay began. The activity produced by 100 pmol of 1α,25(OH)2 D3 was set to be 100% for both ICA and BCM. The dose of the analogs required to achieve a biological response for either ICA or BCM equivalent to the 100 pmol dose of 1α,25(OH)2 D3 was calculated and converted to a percentage. Results are expressed as mean +SE of groups of seven chicks. Each assay included a negative control (-D), that is no vitamin D was present, and a positive control, where vitamin D3 (+D3) was present in 3.25 nmol. […] 1α,25(OH)2 D3 and analogs LO [14α,15α-methano-1α,25(OH)2 D3 ], EV [22-(m(dimethylhydroxymethyl)phenyl)-23,24,25,26,27-pentanor-1α-OH-D3 ] and HR [(22R)-1,25(OH)2 -22,23-diene-D3 ] were administered in 0.0065, 0.065, 0.65 and 6.5 nmol as shown.
(§2) In Vivo Assays of Intestinal Calcium Absorption and Bone Calcium Mobilization
(§3) This example describes assays used for determination of analogs biological activity in intestinal calcium absorption (ICA) and bone calcium mobilization (BCM) assays.
(§4) ICA and BCM were measured in vivo in the vitamin D-deficient chick model system according to Biochem. Pharmacol., 18: 2347 (1969).
(§5) Twelve hours before assay, the chickens, which had been placed on a zero-calcium diet 48 h before assay, were injected intramuscularly with the vitamin metabolite 1α,25(OH)2 D3 or analog (1-10,000 pmoles) dissolved in 0.1 mL of ethanol/1,2-propanediol (1:1, v/v). At the time of assay, 4.0 mg of ^40 Ca^2+ +5 μCi of ^45 Ca^2+ (New England Nuclear) were placed in the duodenum of the birds lightly anesthetized with ether. After 30 min, the birds were decapitated and the blood was collected.
BCM activity was estimated from the increase of total serum calcium concentration, as determined by atomic absorption spectrophotometry.

VDRmem = test: Rapid response (summary classification); conditions: Yes/No, Tables 1 and 6
Description: (§6) Table 6 identifies biological properties, such as genomic response, rapid response, agonist or antagonist function, binding of the analog to the vitamin binding protein (expressed as RCI), binding to the nuclear 1α,25(OH)2 D3 receptor (expressed as RCI) rapid response (expressed as % transcaltachia the rapid hormonal stimulation of intestinal calcium absorption) the classic vitamin D responses such as intestinal Ca^2+ absorption (ICA) and bone Ca^2+ mobilizing activity (BCM) determined in vivo in a vitamin D-deficient chick, and cell differentiation (expressed as % ED50), an assessment of the ability to promote the nuclear response of cell differentiation.

rapid responses (VDRmem) = test: Antagonist function (summary classification); conditions: Yes/No, Tables 1 and 6
Description: as §6

[3] = test system: vitamin D-deficient chick; test: Intestinal Ca2+ absorption (ICA) in vitamin D-deficient chick; format: in vivo; conditions: i.m.; for Classic Vit D Responses ICA: relative to 100 pmol 1α,25(OH)2 D3 = 100%, 12 h before assay
Method: A primary fundamental physiological property of vitamin D and particularly 1α,25(OH)2 D3 is its ability to stimulate the intestinal absorption of calcium and facilitate the availability of dietary calcium to the organism. Intestinal absorption of the calcium is measured by the intestinal calcium absorption (ICA) assay, developed in the model of vitamin-D deficient chicks. The ICA assay was used to determine the relative capability of the tested analog to stimulate intestinal Ca^2+ absorption.
as §1, §2, §3, §4, §5
The radioactivity content, which is a measure of ICA, of 0.2 mL of serum was measured in a liquid scintillation counter (Beckman LS8000) to determine the amount of ^45 Ca^2+ absorbed.

VDRnuc = test: Genomic response (summary classification); conditions: Yes/No, Tables 1 and 6
Description: as §6

[4] = molecular target: T2, nuclear receptor for 1α,25(OH)2 D3 [VDRnuc] (Gallus gallus, UniProt O42392); test: Relative Competitive Index (steroid competition) assay, nuclear receptor VDRnuc; format: binding, chick; parameters: key to Nuclear 1α,25-D Receptor (RCI): % relative to 1α,25(OH)2D3 binding (RCI = 100%); conditions: RCI of 1α,25(OH)2 D3 = 100
T2 construct: VDRnuc receptor preparation from chick intestine mucosa; from tissue; host or cells: chick intestinal mucosa
T2 sequence (O42392 1-451): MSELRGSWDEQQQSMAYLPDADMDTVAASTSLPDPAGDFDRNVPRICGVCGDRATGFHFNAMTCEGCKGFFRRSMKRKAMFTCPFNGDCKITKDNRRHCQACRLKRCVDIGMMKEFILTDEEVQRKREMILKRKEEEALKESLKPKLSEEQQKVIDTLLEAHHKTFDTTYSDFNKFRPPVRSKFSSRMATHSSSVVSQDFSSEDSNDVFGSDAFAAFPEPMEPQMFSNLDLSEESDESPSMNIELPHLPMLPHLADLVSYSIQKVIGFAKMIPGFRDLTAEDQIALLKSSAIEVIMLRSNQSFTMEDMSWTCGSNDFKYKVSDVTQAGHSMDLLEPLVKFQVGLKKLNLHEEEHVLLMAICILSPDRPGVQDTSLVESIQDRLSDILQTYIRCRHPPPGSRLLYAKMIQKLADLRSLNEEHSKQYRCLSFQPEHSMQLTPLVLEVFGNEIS
Method: The ability of analogs to mediate genomic responses are directly determined by the ability of the analog in question to bind to the nuclear receptor for 1α,25(OH)2 D3 [VDRnuc ]. This ability is detected by the assay measuring Relative Competitive Index (RCI).
The assay is based upon the principles of a steroid competition assay. A fixed amount of [^3 H]1α,25(OH)2 D3 is mixed with increasing amounts of competitive analogs or the natural hormone, 1α,25(OH)2 D3, and incubated with a VDRnuc receptor preparation from chick intestine mucosa.
Ligand Receptor Competition Assay
This example describes a ligand receptor competitive assay used for determination of an analog's relative ability to bind to VDRnuc expressed as relative competitive index (RCI).
The relative affinity of nonradioactive 1α,25(OH)2 D3 and each analog to compete with [^3 H]1α,25(OH)2 D3 for binding to the VDRnuc of NB4 cells was carried out in vitro. The NB4 cells were collected from a fast growing stage and the cellular VDRnuc of 1α,25(OH)2 D3 were extracted from KTED buffer containing 10 mM Tris-HCl, pH 7.4, 300 mM KCl, 1 mM EDTA and 5 mM DTT. After sonication, the cell extract was further centrifuged at 500× g for 10 min. The supernatant was collected for use in a ligand-receptor binding assay.
In this assay, increasing concentrations (10^-10 to 10^-6 M) of nonradioactive 1α,25(OH)2 D3 or the tested analogs were incubated with NB4 cell extracts in the presence of a fixed saturating amount of 1 pmole of [^3 H]1α,25(OH)2 D3. The reciprocal of the percentage of maximal binding of [^3 H]1α,25(OH)2 D3 was then calculated and plotted as a function of the relative analog concentration versus [^3 H]1α,25(OH)2 D3. […] The competitive index value for each analog is then normalized to the competitive index value of the […], thereby generating the value of Relative Competitive Index (RCI) where the RCI for 1α,25(OH)2 D3 is defined as 100%.
The full description of the assay is found in Methods in Enzymology: Vitamins and Co-Enzymes, Vol. 67, 494-500 , Academic Press, NY(1980); Biochem. Biophys. Res. Commun., 91: 827-834 (1979); and Endocrinology, 139(2): 457-465 (1998).

Vit D Binding Protein (RCI) [1] | Nuclear 1α,25-D Receptor (RCI) [4] | Compound | Classic Vit D Responses BCM [2] | Rapid Response (VDRmem) | Antagonist (rapid responses (VDRmem)) | Classic Vit D Responses ICA [3] | Genomic Response (VDRnuc) | BCM (in words) ([2]; vitamin D-deficient chick) | ICA (in words) ([3]; vitamin D-deficient chick)
66,700 |  | C=C1CC[C@H](O)C/C1=C/C=C1\CCC[C@]2(C)[C@@H]([C@H](C)CCCC(C)(C)O)CC[C@@H]12 [25(OH)D3, 25-hydroxyvitamin D3, reference compound] |  |  |  |  |  |  | 
 |  | C=C1/C(=C\C=C2/CCC[C@@]3(C)[C@@H]2CC[C@@H]3[C@H](C)CCCC(C)(C)O)C[C@@H](O)C[C@@H]1O [GE] | < 0.1% | Yes | No | 0.5% | Yes |  | 
 |  | C=C1/C(=C\C=C2/CCC[C@]3(C)[C@@H]([C@H](C)CCCC(C)(C)O)CC[C@@H]23)C[C@H](O)C[C@H]1O [HH] |  | No | Yes |  | No |  | 
 |  | C=C1/C(=C\C=C2/CCC[C@]3(C)[C@@H]([C@H](C)CCCC(C)(C)O)CC[C@@H]23)C[C@H](O)C[C@@H]1O [HJ] | 1.5% | Yes | No | 2.8% | Yes |  | 
 | 1 | C=C1/C(=C\C=C2/CCC[C@]3(C)[C@@H]([C@H](C)C#Cc4cccc(C(C)(C)O)c4)CC[C@@H]23)C[C@@H](O)C[C@@H]1O [IB] |  | Yes | No |  | Yes |  | 
 |  | C=C1/C(=C\C=C2\CCC[C@]3(C)[C@@H]([C@H](C)CCCC(C)(C)O)CC[C@@H]23)C[C@@H](O)C[C@@H]1O [JR] | 0.02% | Yes | No | 0.03% | Yes |  | 
 |  | C=C1/C(=C/C=C2/CCC[C@]3(C)[C@@H]([C@H](C)CCCC(C)(C)O)CC[C@@H]23)C[C@@H](O)C[C@@H]1O [JS] | < 0.02% | Yes | No | < 0.02% | Yes |  | 
 |  | C=C1CC[C@H](O)C/C1=C/C=C1\CCC[C@]2(C)[C@@H]([C@H](C)CCCC(C)C)CC[C@@H]12 [vitamin D3, 9,10-secocholesta-5,7,10(19)-trien-3β-ol, reference compound] |  |  |  |  |  | significant at P<0.01 | significant at P<0.01

From patent US6103709A (priority 1998, dated 2000)
